Experimental data from publication PMC2834170 (Bioorganic & medicinal chemistry letters, 2010).

Assays:
μ opioid receptor = μ opioid receptor (Homo sapiens, UniProt P35372); assay: Inhibition of μ opioid binding to CHO membranes
[1] = system: μ, δ and κ opioid receptors; assay: Selectivity across μ, δ and κ opioid binding to CHO membranes; settings: for Selectivity μ/δ/κ: ratio of Ki values, CHO membranes
κ opioid receptor = κ opioid receptor (Homo sapiens, UniProt P41145); assay: Inhibition of κ opioid binding to CHO membranes
[2] = relative to ether based compound 3

μ opioid receptor, sequence (P35372 whole entry, species assumed): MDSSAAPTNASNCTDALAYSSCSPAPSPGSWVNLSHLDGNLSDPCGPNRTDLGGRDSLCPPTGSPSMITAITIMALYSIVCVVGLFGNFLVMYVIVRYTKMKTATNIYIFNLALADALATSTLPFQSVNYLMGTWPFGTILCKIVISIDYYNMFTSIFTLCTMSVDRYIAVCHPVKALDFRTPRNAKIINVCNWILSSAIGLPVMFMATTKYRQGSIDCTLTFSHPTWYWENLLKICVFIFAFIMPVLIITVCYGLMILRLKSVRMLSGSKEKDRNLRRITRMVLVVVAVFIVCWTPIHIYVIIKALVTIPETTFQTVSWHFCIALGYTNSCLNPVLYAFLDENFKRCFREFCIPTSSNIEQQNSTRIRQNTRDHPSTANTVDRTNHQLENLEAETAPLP
κ opioid receptor, sequence (P41145 whole entry): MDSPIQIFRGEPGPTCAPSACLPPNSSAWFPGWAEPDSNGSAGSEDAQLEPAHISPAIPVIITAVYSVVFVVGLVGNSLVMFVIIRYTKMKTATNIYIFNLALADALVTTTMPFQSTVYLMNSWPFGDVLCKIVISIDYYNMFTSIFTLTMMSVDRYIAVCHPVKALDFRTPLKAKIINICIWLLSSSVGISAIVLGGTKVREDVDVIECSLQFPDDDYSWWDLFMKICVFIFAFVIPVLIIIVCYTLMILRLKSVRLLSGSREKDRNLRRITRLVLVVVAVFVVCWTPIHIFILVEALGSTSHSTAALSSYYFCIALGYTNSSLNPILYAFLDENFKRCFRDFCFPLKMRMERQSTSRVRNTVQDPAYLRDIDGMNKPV

For `OC(COc1ccc2c(c1)[C@@]13CCCC[C@H]1[C@@H](C2)N(CC1CCC1)CC3)COc1ccc2c(c1)[C@@]13CCCC[C@H]1[C@@H](C2)N(CC1CCC1)CC3` [Compound 6], which “greater binding affinity at the μ receptor” value (μ opioid receptor; relative to des-hydroxy analog 5) is on record?
Its value is 7.5 fold.

And the “Selectivity μ/δ/κ” value [1]?
Its value is 1/39/1.

How did the “Selectivity μ/δ/κ” value [1] turn out when `OC(COc1ccc2c(c1)[C@@]13CCCC[C@H]1[C@@H](C2)N(CC1CCC1)CC3)CC(O)COc1ccc2c(c1)[C@@]13CCCC[C@H]1[C@@H](C2)N(CC1CCC1)CC3` (some centres unmarked) [Compound 7] was run?
The value was 7/194/1.

For `OC(CCCCC(O)COc1ccc2c(c1)[C@@]13CCCC[C@H]1[C@@H](C2)N(CC1CCC1)CC3)COc1ccc2c(c1)[C@@]13CCCC[C@H]1[C@@H](C2)N(CC1CCC1)CC3` (some centres unmarked) [Compound 10], which “Selectivity μ/δ/κ” value [1] is on record?
Its value is 1/23/1.

`OC(CCCCCCC(O)COc1ccc2c(c1)[C@@]13CCCC[C@H]1[C@@H](C2)N(CC1CCC1)CC3)COc1ccc2c(c1)[C@@]13CCCC[C@H]1[C@@H](C2)N(CC1CCC1)CC3` (stereo partly drawn) [Compound 12, Bis-((−)-N-cyclobutylmethylmorphinan-3-oxy) decane-2,9-diol] was tested. Which “increase in binding affinity at the μ opioid receptor” value (μ opioid receptor; [2]) did it give?
The value was 27 fold.

What about the “increase in binding affinity at the κ opioid receptor” value (κ opioid receptor; [2]) of the same compound?
The value was 86 fold.

How did the “Selectivity μ/δ/κ” value [1] turn out when `c1cc2c(cc1OCC1CO1)[C@@]13CCCC[C@H]1[C@@H](C2)N(CC1CCC1)CC3` (some centres unmarked) [Compound 14] was run?
The value was 1/27/5.

For `CCCCCCCCC(O)COc1ccc2c(c1)[C@@]13CCCC[C@H]1[C@@H](C2)N(CC1CCC1)CC3` (some centres unmarked) [Compound 15], which “weaker binding affinity at the μ and κ receptors” value ([1]; relative to bivalent ligand 12) is on record?
Its value is 3–6 fold.

What does the source list for `CCCCCCCCCC(=O)Oc1ccc2c(c1)[C@@]13CCCC[C@H]1[C@@H](C2)N(CC1CCC1)CC3` [Compound 16]?
Ki (nM) ± SE μ (μ opioid receptor; CHO membranes): sub-nanomolar; Ki (nM) ± SE κ (κ opioid receptor; CHO membranes): sub-nanomolar; Selectivity μ/δ/κ [1]: 1/100/1

With `CCCCCCCCCCOc1ccc2c(c1)[C@@]13CCCC[C@H]1[C@@H](C2)N(CC1CCC1)CC3` [Compound 17] as the compound, how does the “weaker binding affinity at the μ opioid receptor” value (μ opioid receptor; relative to 15) read?
The value was 10 fold.

How did the “weaker binding affinity at the μ opioid receptor” value (μ opioid receptor; relative to bivalent hydroxy ether 6) turn out when `OC(COc1ccccc1)COc1ccc2c(c1)[C@@]13CCCC[C@H]1[C@@H](C2)N(CC1CCC1)CC3` (some centres unmarked) [Compound 18] was run?
Its value is 7.5 fold.

What about the “Selectivity μ/δ/κ” value [1] of the same compound?
The value was 1/13/3.
